Test results taken from ChEMBL document CHEMBL5032500, “Adenosine A2AR/A1R Antagonists Enabling Additional H3R Antagonism for the Treatment of Parkinson's Disease” (J Med Chem, 2021).
Active and inactive are the calls of the source. The calls are words filed in the database; no cut-off is given here.

Tests used:
D(1B) dopamine receptor = D(1B) dopamine receptor (Homo sapiens, UniProt P21918); experiment: Displacement of [3H]SCH23390 from human recombinant dopamine D5 receptor expressed in HEK293 cells by liquid scintillation counting analysis; type: cell-based
Homo sapiens [1] = species: Homo sapiens; experiment: Selectivity index, ratio of Ki for human recombinant adenosine A2B receptor to Ki for human recombinant histamine H3 receptor
Mus musculus [2] = experiment: Induction of wakefulness in C57BL/6 mouse at 1 mg/kg, po by EEG analysis; type: functional, organism-based
Homo sapiens [3] = species: Homo sapiens; experiment: Selectivity index, ratio of Ki for human recombinant adenosine A2A receptor to Ki for human recombinant adenosine A1 receptor
Homo sapiens [4] = species: Homo sapiens; experiment: Selectivity index, ratio of Ki for human recombinant dopamine D2S receptor to Ki for human recombinant adenosine A2A receptor
[5] = Toxicity in C57BL/6 mouse assessed as effect on paradoxical sleep at 2 mg/kg, po by EEG analysis; type: organism-based; details: in vivo
Homo sapiens [6] = species: Homo sapiens; experiment: Selectivity index, ratio of Ki for human recombinant dopamine D2S receptor to Ki for human recombinant adenosine A3 receptor
Adenosine receptor A3 = target: T1, Adenosine receptor A3 (Homo sapiens, UniProt P0DMS8); experiment: Displacement of [3H]PSB-11 from human recombinant adenosine A3 receptor expressed in CHO cells by liquid scintillation counting analysis; type: cell-based
T1 sequence (P0DMS8 whole entry): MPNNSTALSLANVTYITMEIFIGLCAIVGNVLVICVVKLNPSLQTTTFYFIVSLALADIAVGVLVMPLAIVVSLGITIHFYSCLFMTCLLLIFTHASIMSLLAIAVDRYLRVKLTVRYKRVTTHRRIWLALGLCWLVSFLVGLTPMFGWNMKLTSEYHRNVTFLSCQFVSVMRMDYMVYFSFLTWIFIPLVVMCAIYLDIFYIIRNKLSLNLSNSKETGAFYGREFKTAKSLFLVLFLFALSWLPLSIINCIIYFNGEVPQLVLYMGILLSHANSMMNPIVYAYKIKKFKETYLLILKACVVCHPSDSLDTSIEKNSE

Homo sapiens [7] = species: Homo sapiens; experiment: Selectivity index, ratio of Ki for human recombinant adenosine A2A receptor to Ki for human recombinant histamine H3 receptor
Homo sapiens [8] = species: Homo sapiens; experiment: Selectivity index, ratio of Ki for human recombinant adenosine A2B receptor to Ki for human recombinant adenosine A1 receptor
MAO-A = MAO-A (Homo sapiens, UniProt P21397); experiment: Inhibition of human recombinant MAO-A using kynuramine as substrate at 10 uM measured for 30 mins by spectrophotometric analysis; details: probe kynuramine
Histamine H3 receptor = Histamine H3 receptor (Homo sapiens, UniProt Q9Y5N1); experiment: Displacement of [3H] N-alpha methylhistamine from human recombinant histamine H3 receptor expressed in HEK293 cells measured after 90 mins; type: cell-based
MAO-B = MAO-B (Homo sapiens, UniProt P27338); experiment: Inhibition of human recombinant MAO-B using kynuramine as substrate at 10 uM measured for 30 mins by spectrophotometric analysis; details: probe kynuramine
Homo sapiens [9] = species: Homo sapiens; experiment: Selectivity index, ratio of Ki for human recombinant adenosine A3 receptor to Ki for human recombinant adenosine A2A receptor
[10] = Displacement of [3H]SCH23390 from human recombinant dopamine D1 receptor expressed in HEK293 cells by liquid scintillation counting analysis; type: cell-based
Homo sapiens [11] = species: Homo sapiens; experiment: Selectivity index, ratio of Ki for human recombinant dopamine D2S receptor to Ki for human recombinant adenosine A2B receptor
Homo sapiens [12] = species: Homo sapiens; experiment: Selectivity index, ratio of Ki for human recombinant adenosine A2B receptor to Ki for human recombinant adenosine A2A receptor
Homo sapiens [13] = species: Homo sapiens; experiment: Selectivity index, ratio of Ki for human recombinant dopamine D2S receptor to Ki for human recombinant adenosine A1 receptor
Homo sapiens [14] = species: Homo sapiens; experiment: Selectivity index, ratio of Ki for human recombinant dopamine D3 receptor to Ki for human recombinant dopamine D2S receptor
D(3) dopamine receptor = D(3) dopamine receptor (Homo sapiens, UniProt P35462); experiment: Displacement of [3H]spiperone from human recombinant dopamine D3 receptor expressed in CHO cells by liquid scintillation counting analysis; type: cell-based
Adenosine receptor A2b = target: T2, Adenosine receptor A2b (Homo sapiens, UniProt P29275); experiment: Displacement of [3H]PSB-603 from human recombinant adenosine A2B receptor expressed in CHO cells by liquid scintillation counting analysis; type: cell-based
T2 sequence (P29275 whole entry): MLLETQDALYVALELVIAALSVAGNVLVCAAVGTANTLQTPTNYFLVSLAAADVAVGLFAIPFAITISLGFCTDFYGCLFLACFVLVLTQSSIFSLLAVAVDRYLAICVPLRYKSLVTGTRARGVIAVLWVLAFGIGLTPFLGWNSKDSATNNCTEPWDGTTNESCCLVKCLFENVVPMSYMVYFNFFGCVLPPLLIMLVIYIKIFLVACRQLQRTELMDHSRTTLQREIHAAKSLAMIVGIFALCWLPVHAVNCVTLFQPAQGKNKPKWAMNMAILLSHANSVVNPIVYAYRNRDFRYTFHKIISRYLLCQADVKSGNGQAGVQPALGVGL

Histamine H4 receptor = Histamine H4 receptor (Homo sapiens, UniProt Q9H3N8); experiment: Displacement of [3H]histamine from human recombinant histamine H4 receptor expressed in sf9 cells by liquid scintillation counting analysis
Histamine H1 receptor = Histamine H1 receptor (Homo sapiens, UniProt P35367); experiment: Displacement of [3H]pyrilamine from human recombinant histamine H1 receptor expressed in CHO cells by liquid scintillation counting analysis; type: cell-based
[15] = target: Adenosine receptors; A1 & A3 (Homo sapiens) (UniProt P30542+P0DMS8); experiment: Selectivity index, ratio of Ki for human recombinant adenosine A3 receptor to Ki for human recombinant adenosine A1 receptor; type: protein assay
Adenosine receptor A1 = target: T3, Adenosine receptor A1 (Homo sapiens, UniProt P30542); experiment: Displacement of [3H]CCPA from human recombinant adenosine A1 receptor expressed in CHO cells by liquid scintillation counting analysis; type: cell-based
T3 sequence (P30542 whole entry): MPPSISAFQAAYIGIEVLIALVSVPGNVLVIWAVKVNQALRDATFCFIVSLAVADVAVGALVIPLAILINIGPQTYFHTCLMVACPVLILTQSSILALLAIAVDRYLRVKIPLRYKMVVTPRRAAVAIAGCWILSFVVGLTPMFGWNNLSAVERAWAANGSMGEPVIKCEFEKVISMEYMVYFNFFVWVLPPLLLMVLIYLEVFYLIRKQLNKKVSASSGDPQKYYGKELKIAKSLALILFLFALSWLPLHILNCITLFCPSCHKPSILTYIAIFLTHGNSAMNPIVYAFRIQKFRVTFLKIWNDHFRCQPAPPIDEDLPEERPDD

Homo sapiens [16] = species: Homo sapiens; experiment: Selectivity index, ratio of Ki for human recombinant dopamine D3 receptor to Ki for human recombinant adenosine A2B receptor
Homo sapiens [17] = species: Homo sapiens; experiment: Selectivity index, ratio of Ki for human recombinant dopamine D3 receptor to Ki for human recombinant adenosine A1 receptor
Homo sapiens [18] = species: Homo sapiens; experiment: Selectivity index, ratio of Ki for human recombinant dopamine D3 receptor to Ki for human recombinant adenosine A3 receptor
Mus musculus [19] = experiment: Induction of wakefulness in C57BL/6 mouse assessed as increase in time spent awake at 2 mg/kg, po by EEG analysis; type: functional, organism-based
Homo sapiens [20] = species: Homo sapiens; experiment: Selectivity index, ratio of Ki for human recombinant adenosine A3 receptor to Ki for human recombinant adenosine A2B receptor
D(2) dopamine receptor = D(2) dopamine receptor (Homo sapiens, UniProt P14416); experiment: Displacement of [3H]spiperone from human recombinant dopamine D2S receptor expressed in CHO cells by liquid scintillation counting analysis; type: cell-based
Adenosine receptor A2a [21] = target: T4, Adenosine receptor A2a (Homo sapiens, UniProt P29274); experiment: Displacement of [3H]MSX-2 from human recombinant adenosine A2A receptor expressed in CHO cells by liquid scintillation counting analysis; type: cell-based
Homo sapiens [22] = species: Homo sapiens; experiment: Selectivity index, ratio of Ki for human recombinant dopamine D2S receptor to Ki for human recombinant histamine H3 receptor
Mus musculus [23] = experiment: Induction of wake promoting activity in C57BL/6 mouse assessed as reduction in slow wave sleep at 2 mg/kg, po by EEG analysis; type: functional, organism-based
Homo sapiens [24] = species: Homo sapiens; experiment: Selectivity index, ratio of Ki for human recombinant dopamine D3 receptor to Ki for human recombinant adenosine A2A receptor
Homo sapiens [25] = species: Homo sapiens; experiment: Selectivity index, ratio of Ki for human recombinant dopamine D3 receptor to Ki for human recombinant histamine H3 receptor
Adenosine receptor A2a [26] = target: T4, Adenosine receptor A2a; experiment: […] activity at human recombinant adenosine A2A receptor expressed in CHO cells assessed as inhibition of NECA-induced cAMP accumulation incubated for 20 mins by radioligand competition binding assay; type: functional, cell-based
Homo sapiens [27] = species: Homo sapiens; experiment: Selectivity index, ratio of Ki for human recombinant adenosine A3 receptor to Ki for human recombinant histamine H3 receptor
Homo sapiens [28] = species: Homo sapiens; experiment: Selectivity index, ratio of Ki for human recombinant adenosine A1 receptor to Ki for human recombinant histamine H3 receptor
Rattus norvegicus = experiment: Antiparkinson's activity in ip dosed L-DOPA induced dyskinesia Sprague-Dawley rat model assessed as reduction in dyskinesia by measuring abnormal involuntary movement upto 21 days; type: functional, organism-based; details: dose 0.1-1 mg/kg, time day <=21
[29] = target: Amine oxidase [flavin-containing] B (Homo sapiens, UniProt P27338); experiment: Inhibition of human recombinant MAO-B using kynuramine as substrate measured for 30 mins by spectrophotometric analysis
Sequence of Amine oxidase [flavin-containing] B (P27338 whole entry): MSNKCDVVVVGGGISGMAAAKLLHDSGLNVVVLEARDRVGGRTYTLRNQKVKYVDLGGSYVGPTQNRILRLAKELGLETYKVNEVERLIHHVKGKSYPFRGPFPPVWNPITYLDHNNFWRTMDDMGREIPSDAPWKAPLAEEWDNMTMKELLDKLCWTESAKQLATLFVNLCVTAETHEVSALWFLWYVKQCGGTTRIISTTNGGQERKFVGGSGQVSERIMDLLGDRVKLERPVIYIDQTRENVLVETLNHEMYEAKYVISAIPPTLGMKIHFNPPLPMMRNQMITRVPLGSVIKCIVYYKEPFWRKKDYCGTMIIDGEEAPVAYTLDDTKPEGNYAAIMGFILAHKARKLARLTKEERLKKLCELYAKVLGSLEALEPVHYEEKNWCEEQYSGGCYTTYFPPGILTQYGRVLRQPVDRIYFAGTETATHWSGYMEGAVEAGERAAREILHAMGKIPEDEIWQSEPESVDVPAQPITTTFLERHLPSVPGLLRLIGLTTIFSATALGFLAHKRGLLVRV

T4 sequence (P29274 whole entry): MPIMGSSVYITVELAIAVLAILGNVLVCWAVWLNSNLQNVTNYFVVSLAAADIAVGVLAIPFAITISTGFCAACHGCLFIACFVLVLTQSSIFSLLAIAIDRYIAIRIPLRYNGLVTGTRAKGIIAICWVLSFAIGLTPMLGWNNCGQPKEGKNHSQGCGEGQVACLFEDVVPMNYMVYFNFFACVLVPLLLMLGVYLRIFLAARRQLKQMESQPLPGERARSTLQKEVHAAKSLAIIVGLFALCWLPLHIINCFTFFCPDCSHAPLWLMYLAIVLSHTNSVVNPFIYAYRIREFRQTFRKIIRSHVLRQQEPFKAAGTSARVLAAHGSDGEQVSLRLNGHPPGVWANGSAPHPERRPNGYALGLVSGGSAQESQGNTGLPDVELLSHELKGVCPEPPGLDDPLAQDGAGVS
Sequence of Histamine H4 receptor (Q9H3N8 whole entry): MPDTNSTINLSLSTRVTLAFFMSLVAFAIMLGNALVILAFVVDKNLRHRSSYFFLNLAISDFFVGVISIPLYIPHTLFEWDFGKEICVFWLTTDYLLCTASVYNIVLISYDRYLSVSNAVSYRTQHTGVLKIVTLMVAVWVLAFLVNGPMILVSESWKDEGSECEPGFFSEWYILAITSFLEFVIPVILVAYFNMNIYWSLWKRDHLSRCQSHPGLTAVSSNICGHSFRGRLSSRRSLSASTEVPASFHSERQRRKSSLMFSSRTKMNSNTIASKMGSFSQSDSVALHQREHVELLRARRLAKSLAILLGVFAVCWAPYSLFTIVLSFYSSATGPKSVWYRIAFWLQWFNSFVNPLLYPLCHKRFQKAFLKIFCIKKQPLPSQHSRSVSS
Sequence of D(2) dopamine receptor (P14416 whole entry): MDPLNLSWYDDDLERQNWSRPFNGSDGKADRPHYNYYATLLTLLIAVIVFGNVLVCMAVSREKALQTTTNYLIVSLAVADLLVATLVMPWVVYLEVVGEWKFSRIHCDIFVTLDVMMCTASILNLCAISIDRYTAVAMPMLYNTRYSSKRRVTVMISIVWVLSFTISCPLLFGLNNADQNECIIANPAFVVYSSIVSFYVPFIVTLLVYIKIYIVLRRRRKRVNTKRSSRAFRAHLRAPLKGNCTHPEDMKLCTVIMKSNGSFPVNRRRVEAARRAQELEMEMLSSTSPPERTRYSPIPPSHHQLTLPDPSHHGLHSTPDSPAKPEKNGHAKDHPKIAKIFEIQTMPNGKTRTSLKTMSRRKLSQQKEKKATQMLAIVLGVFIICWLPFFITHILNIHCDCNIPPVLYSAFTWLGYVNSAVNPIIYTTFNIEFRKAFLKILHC
Sequence of Histamine H1 receptor (P35367 whole entry): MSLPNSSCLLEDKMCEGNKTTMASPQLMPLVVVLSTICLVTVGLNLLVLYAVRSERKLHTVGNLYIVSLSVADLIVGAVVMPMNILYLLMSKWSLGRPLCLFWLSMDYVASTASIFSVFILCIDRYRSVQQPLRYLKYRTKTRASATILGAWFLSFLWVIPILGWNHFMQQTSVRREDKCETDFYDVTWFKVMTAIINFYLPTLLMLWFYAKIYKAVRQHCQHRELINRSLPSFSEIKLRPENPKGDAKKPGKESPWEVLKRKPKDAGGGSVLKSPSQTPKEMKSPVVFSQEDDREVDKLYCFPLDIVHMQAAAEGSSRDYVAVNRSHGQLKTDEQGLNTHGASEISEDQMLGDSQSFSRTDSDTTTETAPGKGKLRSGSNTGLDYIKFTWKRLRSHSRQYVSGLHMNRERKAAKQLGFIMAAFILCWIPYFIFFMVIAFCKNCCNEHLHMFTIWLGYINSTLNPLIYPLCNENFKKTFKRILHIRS
Sequence of MAO-B (P27338 whole entry): as the sequence (P27338 whole entry) above
Sequence of Histamine H3 receptor (Q9Y5N1 whole entry): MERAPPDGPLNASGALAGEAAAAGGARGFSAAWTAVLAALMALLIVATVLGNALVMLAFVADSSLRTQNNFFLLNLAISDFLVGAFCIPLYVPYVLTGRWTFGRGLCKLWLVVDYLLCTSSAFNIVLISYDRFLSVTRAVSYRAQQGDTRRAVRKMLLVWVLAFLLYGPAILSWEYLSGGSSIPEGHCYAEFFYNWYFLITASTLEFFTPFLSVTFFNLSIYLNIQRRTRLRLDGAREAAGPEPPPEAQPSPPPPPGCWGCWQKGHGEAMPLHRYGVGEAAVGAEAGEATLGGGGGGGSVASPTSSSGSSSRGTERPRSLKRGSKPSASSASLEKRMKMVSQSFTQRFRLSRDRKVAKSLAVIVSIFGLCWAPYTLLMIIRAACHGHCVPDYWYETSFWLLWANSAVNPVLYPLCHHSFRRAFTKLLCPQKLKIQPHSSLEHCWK
Sequence of D(1B) dopamine receptor (P21918 whole entry): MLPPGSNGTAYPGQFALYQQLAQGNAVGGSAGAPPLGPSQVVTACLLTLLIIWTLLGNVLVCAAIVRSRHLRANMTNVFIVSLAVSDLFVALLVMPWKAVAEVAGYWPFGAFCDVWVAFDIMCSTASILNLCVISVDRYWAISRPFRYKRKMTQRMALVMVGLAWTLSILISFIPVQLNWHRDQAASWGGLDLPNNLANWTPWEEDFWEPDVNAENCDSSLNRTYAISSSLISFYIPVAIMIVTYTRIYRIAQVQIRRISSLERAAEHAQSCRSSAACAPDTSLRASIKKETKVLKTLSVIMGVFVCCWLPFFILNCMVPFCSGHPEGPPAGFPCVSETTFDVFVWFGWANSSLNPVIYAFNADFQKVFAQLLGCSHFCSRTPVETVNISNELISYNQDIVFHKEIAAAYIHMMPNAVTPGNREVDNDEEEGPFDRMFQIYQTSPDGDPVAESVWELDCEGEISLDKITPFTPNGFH
Sequence of MAO-A (P21397 whole entry): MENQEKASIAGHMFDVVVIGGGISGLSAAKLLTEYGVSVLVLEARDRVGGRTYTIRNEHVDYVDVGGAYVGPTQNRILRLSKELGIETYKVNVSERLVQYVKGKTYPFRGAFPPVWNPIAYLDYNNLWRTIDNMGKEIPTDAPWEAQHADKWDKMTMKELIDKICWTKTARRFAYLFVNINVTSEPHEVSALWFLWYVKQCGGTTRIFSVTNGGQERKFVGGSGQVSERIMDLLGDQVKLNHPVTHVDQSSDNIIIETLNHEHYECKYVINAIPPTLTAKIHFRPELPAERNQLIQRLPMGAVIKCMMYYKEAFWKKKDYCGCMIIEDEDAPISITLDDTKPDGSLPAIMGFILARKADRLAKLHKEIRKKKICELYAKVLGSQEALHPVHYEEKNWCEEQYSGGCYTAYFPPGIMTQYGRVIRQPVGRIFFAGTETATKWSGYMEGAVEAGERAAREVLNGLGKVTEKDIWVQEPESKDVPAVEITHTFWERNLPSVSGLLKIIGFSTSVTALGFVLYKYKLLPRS
Sequence of D(3) dopamine receptor (P35462 whole entry): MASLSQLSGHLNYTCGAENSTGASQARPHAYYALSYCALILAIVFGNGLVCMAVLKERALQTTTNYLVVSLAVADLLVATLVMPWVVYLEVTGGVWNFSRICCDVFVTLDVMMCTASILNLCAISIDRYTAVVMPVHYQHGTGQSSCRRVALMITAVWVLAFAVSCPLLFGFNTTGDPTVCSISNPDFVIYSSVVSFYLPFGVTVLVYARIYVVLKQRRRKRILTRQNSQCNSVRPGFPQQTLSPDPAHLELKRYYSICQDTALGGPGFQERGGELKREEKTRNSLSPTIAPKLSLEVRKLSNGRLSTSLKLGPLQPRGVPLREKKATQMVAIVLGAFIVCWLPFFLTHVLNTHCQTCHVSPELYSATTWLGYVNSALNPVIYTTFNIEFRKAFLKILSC

Row | SMILES | Ki (D(1B) dopamine receptor) | Ratio Ki (Homo sapiens [1]) | Ratio Ki (Homo sapiens [3]) | Ratio Ki (Homo sapiens [4]) | Ratio Ki (Homo sapiens [6]) | Ki (Adenosine receptor A3) | Ratio Ki (Homo sapiens [7]) | Ratio Ki (Homo sapiens [8]) | inhibition at 0.5 h, 10 µM (MAO-A) | Ki (Histamine H3 receptor) | inhibition at 0.5 h, 10 µM (MAO-B) | Ratio Ki (Homo sapiens [9]) | Ki [10] | Ratio Ki (Homo sapiens [11]) | Ratio Ki (Homo sapiens [12]) | Ratio Ki (Homo sapiens [13]) | Ratio Ki (Homo sapiens [14]) | Ki (D(3) dopamine receptor) | Ki (Adenosine receptor A2b) | Ki (Histamine H4 receptor) | further results
1 | Nc1nc(-c2ccccc2)c2c(n1)-c1cc(OCCCN3CCCCC3)ccc1C2=O | > 1000 nM | 0.84 | 0.36 | 396 | 11 | 150 nM | 0.08 | 4 | 16% | 52 nM | 50% | 37 | > 1000 nM | 36 | 11 | 142 | 0.23 | 364 nM | 43.5 nM | > 10 µM | Activity (Mus musculus [2]): inactive; Activity [5]: Non-Toxic; Ki (Histamine H1 receptor): > 1000 nM; Ratio Ki [15]: 13; Ki (Adenosine receptor A1): 11.2 nM; Ratio Ki (Homo sapiens [16]): 8; Ratio Ki (Homo sapiens [17]): 33; Ratio Ki (Homo sapiens [18]): 2; Activity (Mus musculus [19]): Active; Ratio Ki (Homo sapiens [20]): 3; Ki (D(2) dopamine receptor): 1590 nM; Ki (Adenosine receptor A2a [21]): 4.01 nM; Ratio Ki (Homo sapiens [22]): 31; Activity (Mus musculus [23]): Active; Ratio Ki (Homo sapiens [24]): 91; Ratio Ki (Homo sapiens [25]): 7; Activity (Adenosine receptor A2a [26]): inactive; Ratio Ki (Homo sapiens [27]): 3; Ratio Ki (Homo sapiens [28]): 0.22; Activity (Rattus norvegicus): Dose-Dependent Effect
2 | Nc1nc(-c2ccccc2)c2c(n1)-c1cc(OCCCN3CCCC3)ccc1C2 | > 1000 nM | 3 | 0.63 | 172 | 8 | 150 nM | 0.66 | 3 | 7.4% | 11 nM | 57% | 21 | > 1000 nM | 34 | 5 | 108 | 0.23 | 290 nM | 36.9 nM | > 10 µM | Ki (Histamine H1 receptor): > 1000 nM; Ratio Ki [15]: 13; Ki (Adenosine receptor A1): 11.5 nM; IC50 [29]: > 1000 nM; Ratio Ki (Homo sapiens [16]): 8; Ratio Ki (Homo sapiens [17]): 25; Ratio Ki (Homo sapiens [18]): 2; Ratio Ki (Homo sapiens [20]): 4; Ki (D(2) dopamine receptor): 1250 nM; Ki (Adenosine receptor A2a [21]): 7.25 nM; Ratio Ki (Homo sapiens [22]): 113; Ratio Ki (Homo sapiens [24]): 40; Ratio Ki (Homo sapiens [25]): 26; Activity (Adenosine receptor A2a [26]): inactive; Ratio Ki (Homo sapiens [27]): 14; Ratio Ki (Homo sapiens [28]): 1; Activity (Rattus norvegicus): Dose-Dependent Effect
